The values below come from US20220331442A1, “ANTIBODY-BIOMOLECULE CONJUGATES LINKED THROUGH MULTIFUNCTIONAL MACROMOLECULE AND USES THEREOF” (LEVIM BIOTECH LLP, priority 2018, published 2022).

Series [1] in a line: MTT cytotoxicity assay. It is filed as cell-based. Particulars: human, H23 NSCLC cells; gefitinib alone at 50 μM, FIG. 21(b); read-out: Loss of viability of H23 cells. In general terms: Tetrazolium assays rely on reduction of a dye to a coloured formazan, in cell work by metabolically active cells.
In series [2] the test system is H23 NSCLC cells. Kind of series: MTT cytotoxicity assay. The conditions noted are these: gefitinib alone, up to a concentration of 25 μM, FIG. 21(b). It is filed as cell-based.

With `COc1cc2ncnc(Nc3ccc(F)c(Cl)c3)c2cc1OCCCN1CCOCC1` [gefitinib], the cytotoxicity at 50 μM in series [1] came to 70%. Further, the “Cytotoxicity (MTT)” value in series [2] was “no toxicity”.
